Measurements from ChEMBL document CHEMBL1201862, “PubChem BioAssay data set” (2004).
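Compound exposure: 48 hours, 5 concentrations, 96-well plates. The concentration for 50% growth inhibition is given as GI50.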 Calls of active or inactive are those of the source. Cut-off read from the data, not from the text of the source: active = GI50 up to about 1.1 µM and inactive = higher.

Legend:
Assay in all cases: growth of human tumour cells (NCI), 48 h
U-251 = system: U-251
SN12C = system: SN12C
OVCAR-8 = system: OVCAR-8
SNB-78 = system: SNB-78
LOX IMVI = system: LOX IMVI
OVCAR-5 = system: OVCAR-5
SF-295 = system: SF-295
NCI-H460 = system: NCI-H460
ACHN = system: ACHN
CAKI-1 = system: CAKI-1
SNB-19 = system: SNB-19
IGROV-1 = system: IGROV-1
NCI-H226 = system: NCI-H226
SK-MEL-2 = system: SK-MEL-2
Malme-3M = system: Malme-3M
DLD-1 = system: DLD-1
SF-539 = system: SF-539
SK-MEL-28 = system: SK-MEL-28

Measured: GI50

[N-]=[N+]=Nc1ncnc2c1sc(=S)n2-c1ccccc1
inactive: U-251 > 100 µM | SN12C > 100 µM | OVCAR-8 > 100 µM | SNB-78 > 100 µM | LOX IMVI > 100 µM | OVCAR-5 > 100 µM | SF-295 > 100 µM | NCI-H460 > 100 µM | ACHN > 100 µM | CAKI-1 > 100 µM | SNB-19 > 100 µM | IGROV-1 > 100 µM | NCI-H226 > 100 µM | SK-MEL-2 > 100 µM | Malme-3M > 100 µM | DLD-1 > 100 µM | SF-539 > 100 µM | SK-MEL-28 > 100 µM

COC1(C)CNCC(C)(C)NC(=O)C(C)(OC)CNCC(C)(C)NC1=O (configuration not stated)
inactive: U-251 > 100 µM | SN12C > 100 µM | OVCAR-8 > 100 µM | SNB-78 > 100 µM | LOX IMVI > 100 µM | OVCAR-5 > 100 µM | SF-295 > 100 µM | NCI-H460 > 100 µM | ACHN > 100 µM | CAKI-1 > 100 µM | SNB-19 > 100 µM | IGROV-1 > 100 µM | NCI-H226 > 100 µM | SK-MEL-2 > 100 µM | Malme-3M > 100 µM | DLD-1 > 100 µM | SF-539 > 100 µM | SK-MEL-28 > 100 µM

CC(=O)Nc1ccc(-c2nnc(SCC(=O)Nc3ccccc3C)o2)cc1
inactive: U-251 66.7 µM | SN12C > 100 µM | OVCAR-8 > 100 µM | SNB-78 47 µM | LOX IMVI 63 µM | OVCAR-5 > 100 µM | SF-295 89.7 µM | NCI-H460 96.8 µM | ACHN > 100 µM | IGROV-1 67 µM | NCI-H226 > 100 µM | SK-MEL-2 > 100 µM | Malme-3M > 100 µM | DLD-1 49.8 µM | SF-539 > 100 µM | SK-MEL-28 > 100 µM

COC(=O)[C@H]1C=C[C@@H](C)n2c(=O)c3ccccc3c(=O)n21
inactive: U-251 > 100 µM | SN12C > 100 µM | OVCAR-8 > 100 µM | SNB-78 > 100 µM | LOX IMVI > 100 µM | OVCAR-5 > 100 µM | SF-295 > 100 µM | NCI-H460 > 100 µM | ACHN > 100 µM | CAKI-1 > 100 µM | SNB-19 > 100 µM | IGROV-1 > 100 µM | NCI-H226 > 100 µM | SK-MEL-2 > 100 µM | Malme-3M > 100 µM | DLD-1 > 100 µM | SF-539 > 100 µM | SK-MEL-28 > 100 µM

Cn1c(=O)c(C(=O)NC(=O)NCCCCCOC(=O)CCCCCCCCCCC(=O)OCCCCCNC(=O)NC(=O)c2cn(Cc3ccccc3)c(=O)n(C)c2=O)cn(Cc2ccccc2)c1=O
inactive: U-251 > 100 µM | SN12C > 100 µM | OVCAR-8 > 100 µM | SNB-78 > 100 µM | LOX IMVI > 100 µM | OVCAR-5 > 100 µM | NCI-H460 > 100 µM | ACHN > 100 µM | CAKI-1 > 100 µM | SNB-19 > 100 µM | IGROV-1 > 100 µM | NCI-H226 > 100 µM | SK-MEL-2 > 100 µM | Malme-3M > 100 µM | DLD-1 > 100 µM | SF-539 > 100 µM | SK-MEL-28 > 100 µM

COC(CC1(OC)OC(=O)C=C1N)OC (configuration not stated)
inactive: U-251 > 100 µM | SN12C > 100 µM | OVCAR-8 > 100 µM | SNB-78 > 100 µM | LOX IMVI > 100 µM | OVCAR-5 > 100 µM | SF-295 > 100 µM | NCI-H460 > 100 µM | ACHN > 100 µM | SNB-19 > 100 µM | IGROV-1 > 100 µM | NCI-H226 > 100 µM | SK-MEL-2 > 100 µM | Malme-3M > 100 µM | DLD-1 > 100 µM | SF-539 > 100 µM | SK-MEL-28 > 100 µM

C=C1C(=O)OC2/C=C(/C)C3CC(O)C(C)(CC(OC(=O)/C(C)=C/C)C12)O3 (configuration not stated)
inactive: U-251 9.04 µM | SN12C 3.27 µM | OVCAR-8 1.83 µM | SNB-78 2.61 µM | LOX IMVI 1.76 µM | OVCAR-5 8.61 µM | SF-295 > 39.4 µM | NCI-H460 6.18 µM | ACHN 2.49 µM | CAKI-1 1.97 µM | SNB-19 1.97 µM | IGROV-1 5.26 µM | NCI-H226 14.7 µM | SK-MEL-2 2.49 µM | Malme-3M 2.28 µM | DLD-1 1.54 µM | SF-539 2.14 µM | SK-MEL-28 2.52 µM

O=C(Nc1nc2ccccc2n1Cc1ccccc1)NC12CC3CC(CC(C3)C1)C2
inactive: U-251 39 µM | SN12C 82.8 µM | OVCAR-8 > 100 µM | SNB-78 19.8 µM | LOX IMVI 40.3 µM | OVCAR-5 > 100 µM | SF-295 13.4 µM | NCI-H460 41 µM | ACHN 44.7 µM | CAKI-1 88.9 µM | SNB-19 44.1 µM | IGROV-1 75.3 µM | NCI-H226 51.6 µM | SK-MEL-2 > 100 µM | Malme-3M 39.6 µM | DLD-1 87.9 µM | SF-539 36 µM | SK-MEL-28 79.3 µM

CNC1=Nc2ccc(Cl)cc2C(OP(=O)(N2CCOCC2)N2CCOCC2)=NC1
inactive: U-251 > 100 µM | SN12C > 100 µM | OVCAR-8 > 100 µM | SNB-78 > 100 µM | LOX IMVI > 100 µM | OVCAR-5 > 100 µM | SF-295 > 100 µM | NCI-H460 > 100 µM | ACHN > 100 µM | CAKI-1 > 100 µM | SNB-19 > 100 µM | NCI-H226 > 100 µM | SK-MEL-2 > 100 µM | Malme-3M > 100 µM | DLD-1 > 100 µM | SF-539 > 100 µM | SK-MEL-28 > 100 µM

CC(=O)c1ccc(NC(=O)C(=O)C(C(=O)/C=C/c2ccccc2)C2OC(=O)c3ccccc32)cc1 (configuration not stated)
inactive: U-251 83 µM | SN12C > 100 µM | OVCAR-8 > 100 µM | SNB-78 > 100 µM | LOX IMVI > 100 µM | OVCAR-5 > 100 µM | SF-295 > 100 µM | NCI-H460 > 100 µM | ACHN > 100 µM | CAKI-1 > 100 µM | SNB-19 > 100 µM | IGROV-1 > 100 µM | NCI-H226 > 100 µM | SK-MEL-2 > 100 µM | Malme-3M > 100 µM | DLD-1 > 100 µM | SF-539 > 100 µM | SK-MEL-28 > 100 µM

O=C(c1ccccc1)N1C2C3CC(OCc4ccccc4)(OCc4ccccc4)C(O3)C21 (configuration not stated)
inactive: U-251 > 100 µM | SN12C > 100 µM | OVCAR-8 > 100 µM | SNB-78 > 100 µM | LOX IMVI > 100 µM | OVCAR-5 > 100 µM | NCI-H460 > 100 µM | ACHN > 100 µM | CAKI-1 > 100 µM | SNB-19 > 100 µM | IGROV-1 > 100 µM | NCI-H226 > 100 µM | SK-MEL-2 > 100 µM | Malme-3M > 100 µM | DLD-1 > 100 µM | SF-539 > 100 µM | SK-MEL-28 > 100 µM
